This is an account of results in patent US20250332212A1, “METHOD FOR TREATING OR PREVENTING ALOPECIA” (Suzhou Mingren Pharmaceutical Biotechnology Co., Ltd., priority 2024, published 2025).

The target in one data set is type II 5α-reductase (Homo sapiens, UniProt P31213). To be noted: in serum and scalp; cited from earlier work.
For data set [1] the following is noted: background statement; cited from earlier work.
Data set [2] has as its system TP-induced AGA model mice. In words: TP-induced AGA model, Animal model III (specific inhibition of SP1 by MTA). It is filed as in vivo, C57BL/6J male mice. To be noted: MTA 0.3 mg/kg/d intraperitoneally with 1% JP1. The text has this:
To verify that JP1 promotes AGA follicle regeneration through the activation of the Wnt/β-catenin signaling pathway via the MAPK/E2F1/SP1 signaling axis, the example constructed a mouse model of AGA with specific inhibition of SP1 (FIG. 15A). The specific experimental details are described according to “Animal model III” of “1. TP-induced AGA model” in “Experimental Methods”.
To further confirm that JP1 promotes the growth of hair follicles on the back of AGA model mice through the SP1-regulated Wnt/β-catenin signaling pathway at the histomorphometric level, H&E staining was performed on the skin tissues of the model mice of Example 15 at different time points (days 4, 8, and 12 post-intervention).
The mice used in this study were 5-week-old C57BL/6J male mice (18-20 g), which were purchased from Jiangsu Jicui Pharmachem Biotechnology Co. All the animals used in the experiments were housed in the SPF-level environment of the Medical Laboratory Animal Center of Nanjing Medical University, and the relevant animal experimental operations were approved by the Animal Ethics Committee of Nanjing Medical University. The control group was left untreated, and the other groups were injected with TP subcutaneously on their backs every day. Two weeks later, the hair on the backs of the mice was shaved with an electric razor, covering an area of 2 cm×4 cm, and then the residual hair was removed with a hair removal cream. The subcutaneous injections of TP on the shaved backs of the mice in the AGA model was continued until the end of the experimental period, and the administration of TP in each of the treatment groups was begun on the 1st day of the dehairing process.
In addition to the normal control group (denoted as control) n=20, all mice injected subcutaneously with TP were randomly divided into the following groups (n=20): the model group (denoted as model), the 1% JP1 (skin-coated), and the 1% JP1+MTA group. […] MTA was administered at a dose of 0.3 mg/kg/d, qd, intraperitoneally, 100 μL/dose.
Mice were weighed every two days during the experiment. Skin color was assessed against skin score charts. The mice were euthanized and treated at the end of the experiment, and skin tissues were taken from the dorsal decorticated area of the mice. Some of the tissues were fixed with 4% paraformaldehyde solution and then paraffin sections were made for H&E or immunofluorescence staining, etc., and some of the tissues were stored in the refrigerator at −80° C. for relevant molecular expression assays (qRT-PCR, Western Blot, IP, etc.).
8.1) Sampling and fixation: After the experiment, skin tissue was taken from the depilated area on the back of the mouse and placed in a 10 mL EP tube. 4% paraformaldehyde was added to the EP tube, and all tissues were immersed to denature and coagulate the proteins of the skin tissue. The original morphology and structure of the cells were maintained.
8.6) H&E staining: the sections pretreated in distilled water were put into aqueous hematoxylin solution for a few minutes for staining. The color was separated in acid water and ammonia for a few seconds each. After rinsing in running water for 1 h, the sections were placed in distilled water for a few moments. The sections were dehydrated in 70% and 90% alcohol for 10 min each, and stained in alcoholic eosin stain for 2-3 min.

Data set [3] relates to SP1, Wnt10a, Wnt10b and β-catenin. Description: Immunoblotting of SP1 and downstream molecules in skin, Animal model III. It is filed as in vivo, mouse. Conditions: dorsal skin. Here is the method:
4.1) Protein extraction: 70 mg of skin tissue was placed in a 1.5 mL centrifuge tube, and 500 μL of tissue lysate RIPA containing protease inhibitor and phosphatase inhibitor was added. The tissue was placed on an ice box, pulverized by a tissue grinder, and then ultrasonically crushed to obtain a tissue suspension, which was then placed in a rotary windmill at 4° C. to be lysed for 2 h. The centrifuge was set at 12,000×g, 4° C., centrifuged for 15 min, and the supernatant was collected as the total protein.
5.1) Heating of protein samples: the total protein content of each tissue was 50 μg; calculate the volume of a corresponding protein sample, make up the volume with saline to 16 μL, then add 4 μL of 5×SDS sampling buffer, heat at 100° C. for 5 min, and then cool at room temperature and store at −20° C.
5.7) Primary antibody incubation: the cut protein bands were placed into the corresponding primary antibody and incubated at 4° C. on a shaker overnight, washed with TBST 3 times for 10 min/time.
(In western blotting, separated proteins are transferred to a membrane and probed.)

Chain of type II 5α-reductase (P31213 whole entry): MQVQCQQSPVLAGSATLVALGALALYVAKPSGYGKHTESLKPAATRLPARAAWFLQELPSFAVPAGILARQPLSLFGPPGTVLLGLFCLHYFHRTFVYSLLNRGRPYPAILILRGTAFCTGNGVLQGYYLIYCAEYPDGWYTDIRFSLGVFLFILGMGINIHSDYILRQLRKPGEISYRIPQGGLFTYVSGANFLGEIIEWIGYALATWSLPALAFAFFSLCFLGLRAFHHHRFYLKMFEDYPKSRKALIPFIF

With `CC(C)(C)NC(=O)[C@H]1CC[C@H]2[C@@H]3CC[C@H]4NC(=O)C=C[C@]4(C)[C@H]3CC[C@]12C` [finasteride], the “reduction of double hydrogen testosterone (DHT)” value on type II 5α-reductase was “more than 60%”. `Nc1cc(N2CCCCC2)nc(N)[n+]1[O-]` [minoxidil]: in data set [1], the adverse reactions entry was “itchiness of the scalp, dermatitis, and localized hirsutism”.

Turning to Mithramycin A [MTA, reference compound], in data set [2], the “effect of SP1 inhibition on hair follicle growth promotion by JP1” value is given as “blocked the hair follicle growth-promoting effect of JP1”. Besides, the “effect of MTA on JP1-induced expression of SP1 downstream molecules” value in data set [3] is given as “block the effect of JP1 on the expression of SP1 downstream molecules”.
